{
  "source": "patent US20240100079A1",
  "about": "“METHODS AND COMPOSITIONS FOR REGENERATING HAIR CELLS IN THE INNER EAR OF ADULT MAMMALS” (Massachusetts Eye and Ear Infirmary, priority 2021, published 2024)",
  "key": {"[1]": {"system": "cultured adult mouse cochlea", "assay": "Hair cell regeneration in cultured adult wild-type mouse cochlea, reprogramming followed by ad-Atoh1 infection", "assay_type": "cell-based", "conditions": "for reprogramming and regeneration of hair cells with another HDAC inhibitor in the cocktail instead of VPA: TSA 82.5 nM, SAHA 2 μM, Belinostat 1 μM with LiCl, FSK, siFIR, siMxi1, after Ad-Atoh1 infection", "method": "Different from the neonatal cochlear culture method, in which the cochleae were disassociated from the bone, adult mouse whole cochleae (4-6 weeks old) were dissected with the bone attached. The bulla was first removed from the skull and dipped in 75% ethanol for 3 minutes before being placed in HBSS. The vestibular region was also removed. Under a dissecting microscope, the middle ear, vessels and the debris were removed from the bulla. The bone covering the apical turn was removed, and round window and oval window membranes were opened to allow media exchange with the cochlear fluids. The ligament portion and Reissner's membrane at each end of the cochlea were also removed to facilitate the access of medium to the sensory epithelial region. The cochleae were maintained in DMEM/F12 (Invitrogen) supplemented with N2 and B27 (both from Invitrogen) for 14-18 days. Ad-Atoh1 ad-Atoh1-mCherry adenoviruses were purchased from the SignaGen Laboratories, Rockville, MD, with titers of 6×10^10 pfu/ml.\nIn the rtTA/tet-Myc/tet-NICD mouse model, cochleae were treated with Dox (Sigma, 2 μg/ml final concentration); In the Sox2/tdT/rtTA/tet-Myc/tet-NICD mouse model, cochleae were treated with Dox (Sigma, 2 μg/ml final concentration) and 4-Hydroxytamoxifen (Tm, Sigma) (20 ng/ml); in the rtTA/tet-Myc and rtTA/tet-Myc/Atoh1-GFP mouse models, cochleae were treated with Dox (Sigma, 2 μg/ml final concentration) and VPA (2 mM); in the Sox2/tdT/rtTA/tet-Myc mouse model, cochleae were treated with 4-Hydroxytamoxifen (20 ng/ml), Dox (Sigma, 2 μg/ml) and VPA (Sigma, 2 mM); in the rtTA/tet-NICD mouse model, cochleae were treated with Dox (Sigma, 2 μg/ml final concentration), LiCl (Sigma, 8 mM), FSK (Tocris Bioscience, 20 μM), siFIR (Santa Cruz Bio-technology, 0.02 μM), and siMxi1 (Santa Cruz Bio-technology, 0.02 μM); in the Sox2/tdT/rtTA/tet-NICD mouse model, cochleae were treated with 4-Hydroxytamoxifen (20 ng/ml), Dox (Sigma, 2 μg/ml final concentration), LiCl (8 mM), Forskolin (FSK) (20 μM), siFIR (Puf 60, Gene ID: 67959) […], and siMxi1 (Gene ID: 17859) (0.02 μM); in the Atoh1-GFP mouse model, cochleae were treated with VPA (2 mM), LiCl (8 mM), FSK […], siFIR (0.02 μM), and siMxi1 (0.02 μM) for 4 days, followed by ad-Atoh1 (6×10^10 pfu/ml) infection overnight. siRNAs were delivered following the manufacturer's instructions (Polyplus-transfection; 89129-920). In cultured adult mouse cochleae, they were treated with HDAC inhibitor, Belinostat (1 μM, Medchemexpress), Trichostatin A (TSA)(82.5 nM, Medchemexpress), Vorinostat (SAHA)(2 μM; Medchemexpress), and Myc siRNA Fbxw7 (0.02 μM, Santa Cruz Biotechnology). The controls were cultured adult cochleae of the same genotype treated with vehicle (sterile water with 0.1% DMSO) plus ad-Atoh1. […]"}, "[2]": {"system": "adult wild-type mouse utricle", "assay": "Neomycin damage of cultured adult mouse utricle", "assay_type": "cell-based", "conditions": "neomycin 4 mM for 5 days, vs untreated utricles", "method": "Whole utricles were dissected from 4-week-old mice and cultured free-floating. Otoconia were removed using a gentle stream of phosphate-buffered saline (PBS) ejected from a 25G needle and syringe. Utricles were cultured in 1000 μL of media in untreated 24-well flat bottom plates. All cultures were maintained at 37° C. in 5% CO2/95% air.\nCulture media consisted of Dulbecco's Modified Eagle's Medium/F12 (DMEM/F12, Invitrogen) with B27 and N2 supplement. Neomycin sulfate stock (10 mg/mL in 0.9% NaCl, from Sigma Aldrich) was diluted in culture media to 4 mM. Valproic acid (VPA) from Sigma was included at 2 mM, and siRNAs from Santa Cruz were included at 0.02 μM."}},
  "data": [
    {"molecule": "O=C(/C=C/c1cccc(S(=O)(=O)Nc2ccccc2)c1)NO", "note": "[Belinostat, belinostat]", "values": [
      {"measurement": "reprogramming and regeneration of hair cells with another HDAC inhibitor in the cocktail instead of VPA", "setting": "[1]", "value": "sufficient to induce reprogramming and efficient regeneration of hair cells"}
    ]},
    {"molecule": "O=C(CCCCCCC(=O)Nc1ccccc1)NO", "note": "[SAHA, N-Hydroxy-N′-phenyloctanediamide]", "values": [
      {"measurement": "reprogramming and regeneration of hair cells with another HDAC inhibitor in the cocktail instead of VPA", "setting": "[1]", "value": "sufficient to induce reprogramming and efficient regeneration of hair cells"}
    ]},
    {"molecule": "CC(/C=C/C(=O)NO)=C\\[C@@H](C)C(=O)c1ccc(N(C)C)cc1", "note": "[TSA, (2E,4E,6R)-7-(4-(Dimethylamino)phenyl)-N-hydroxy-4,6-dimethyl-7-oxo-2,4-heptadienamide]", "values": [
      {"measurement": "reprogramming and regeneration of hair cells with another HDAC inhibitor in the cocktail instead of VPA", "setting": "[1]", "value": "sufficient to induce reprogramming and efficient regeneration of hair cells"}
    ]},
    {"molecule": "CCCC(CCC)C(=O)[O-].[Na+]", "note": "[VPA, Sodium 2-propylpentanoate]", "values": [
      {"measurement": "HC (MYO7A+) regeneration", "setting": "[1]; cultured adult WT cochlea, treatment followed by Ad-Atoh1 infection (FIG. 7B)", "value": "did not lead to HC (MYO7A)"}
    ]},
    {"molecule": "Neomycin sulfate", "values": [
      {"measurement": "utricle hair cells (MYO7A) after neomycin", "setting": "[2]", "value": "decreased total numbers of utricle HC"},
      {"measurement": "utricle hair cells (MYO7A) after neomycin", "setting": "[2]; listed as Neomycin", "value": "loss of hair cells"}
    ]}
  ]
}
